Patent publication US20190254984A1, “COMPOSITION AND FOOD OR DRINK” (Advanced Medical Frontier Co., Ltd., priority 2012, published 2019)

Legend:
ob/ob mice [1] = test: Example 2: body weight of ob/ob mice after oral administration; assay type: in vivo; details: γ-oryzanol alone, oral daily 5 and 320 μg/g of body weight/day; FIG. 1B
Method: The γ-oryzanol-incorporating particle prepared in Example 1 was orally administered to mice for evaluation.
(§1) First, the γ-oryzanol-incorporating particle was suspended in distilled water at 5%, 1.25%, and 0.31% (w/v). As a control, γ-oryzanol was suspended in 0.5% (w/v) methylcellulose solution (manufactured by Wako Pure Chemical Industries, Ltd.) at 0.05% and 3.2% (0.5 and 32 mg/ml).
(§2) Subsequently, each of the γ-oryzanol-incorporating particle suspensions and the γ-oryzanol suspensions was orally administered to ob/ob mice (five weeks old, male, B6. Lepob/J mice (homozygote (Lepob/Lepob)), made by Charles River Laboratories Japan, Inc.) (n=6) using a probe. For the details, the γ-oryzanol-incorporating particle suspension at 0.3, 1.3, and 5 μg/g of body weight/14 days in terms of γ-oryzanol was administered to the mice for two days followed by a five-day rest period every two weeks; and observation was made for 14 days. The daily dose was 1.1, 4.4, and 17.5 μg/g of body weight/day, respectively. […]
(§3) One week and two weeks after the beginning of the administration, the body weight and blood glucose level of the mice were measured. […] In such a test, following to 18-hour fasting, glucose was orally administered at 0.75 g/kg using a probe; and the blood glucose level was measured from the time of administration to two hours thereafter.

ob/ob mice [2] = test: Example 5: blood glucose level of genetically obese mice over four weeks; assay type: in vivo; details: Orz even at 320 μg/g of body weight/day, n=14, FIG. 10B
Method: (§4) Ob/ob mice were raised at 24° C. under a light/dark cycle of 12 hours/12 hours. The mice were raised in conditions where they were able to freely take feed and water. The body weight of mice was measured every week.
(§5) γ-oryzanol incorporated with PLGA particles was dissolved in distilled water (hereinafter referred to as “Nano Orz”) and administered to the mice using a probe at a dose of 0.3, 1.3, or 5 μg/g of body weight per day for two days every two weeks. As a solution of γ-oryzanol which was not enclosed in the PLGA particle, γ-oryzanol (manufactured by Wako Pure Chemical Industries, Ltd.) was dissolved in a 0.5% methylcellulose solution (hereinafter referred to as “Orz”). Orz was administered to the stomach using a probe everyday for four weeks (5 or 320 μg/g of body weight/day).
Whole blood was collected from the tail vein of mice; and blood glucose was measured using a simple blood glucose meter. A blood sample was further collected from the network of the retro orbital vein. For a glucose tolerance test, the mice were fasted for 18 hours and thereafter administered with glucose at 0.75 g/kg of body weight. The blood glucose level was measured at the predetermined time. […] The concentration of triglycerides in the plasma was determined by Triglyceride E-Test Wako.
(§6) Data were expressed as mean±standard error (s.e.m). […]

ob/ob mice [3] = test: Example 5: plasma triglyceride; assay type: in vivo; details: Orz at the same amount as Nano Orz; n=6; FIG. 13
Method: as §5
(§7) Whole blood was collected from the tail vein of mice; and blood glucose was measured using a simple blood glucose meter. A blood sample was further collected from the network of the retro orbital vein. For a glucose tolerance test, the mice were fasted for 18 hours and thereafter administered with glucose at 0.75 g/kg of body weight. The blood glucose level was measured at the predetermined time. In addition, for an insulin tolerance test, insulin (0.5 unit/kg of body weight; manufactured by Eli Lilly) was intraperitoneally injected to the mice that had fasted for four hours. The concentration of triglycerides in the plasma was determined by Triglyceride E-Test Wako.
as §6

ERdj4 = test: Example 5: ER stress marker gene expression in tissues (real time PCR), ERdj4; assay type: in vivo, mice; details: Orz even at 320 μg/g of body weight/day
Method: as §5
(§8) The hypothalamus, the islets of Langerhans, the adipose tissue of the mesentery, the liver, the epididymal adipose tissue, and the subcutaneous adipose tissue were collected from the mice; and the expression level of ER stress marker genes (Chop, ERdj4, and Xbp1s), and inflammation marker genes (TNF-α and MCP-1) was quantified using a quantitative real time polymerase chain reaction. The islets of Langerhans was isolated from mice by digestion with collagenase (Liberase TL; manufactured by Roche Diagnostics K.K.) and purified using Histopaque (trademark) gradient (Histopaque 1077; manufactured by Sigma-Aldrich). […]
as §6

MCP-1 = test: Example 5: inflammation marker gene expression in adipose tissues (real time PCR), MCP-1; assay type: in vivo, mice; details: Orz even at 320 μg/g of body weight/day, N=8
Method: as §5, §8, §6

ob/ob mice [4] = test: Example 2: oral glucose tolerance test in ob/ob mice; assay type: in vivo; details: γ-oryzanol alone 5 and 320 μg/g of body weight/day; vs vehicle; FIG. 3C, 3D
Method: as §1, §2, §3

ob/ob mice [5] = test: Example 5: insulin tolerance test; assay type: in vivo; details: Orz even at 320 μg/g of body weight/day; n=14; FIG. 12C, 12D
Method: as §5, §7, §6

[6] = test system: IL-8 secretion from TNF-α-stimulated intestinal epithelial cells (Caco-2); test: Example 3: IL-8 secretion upon TNF-α stimulation of Caco-2 cells (ELISA); assay type: cell-based, human; details: 24 h pretreatment with 1 μg/ml of γ-oryzanol; a decrease observed; compared with no and 0.1 μg/ml γ-oryzanol; FIG. 7A
Method: As for cells, Caco-2 (RCB0988, RIKEN, the Institute of Physical and Chemical Research) was used. Caco-2 was cultured in a […] culture dish until reaching semiconfluent. As for a medium, Dulbecco modified Eagle's Medium (DMEM, D5796, manufactured by Sigma-Aldrich) was used. To the medium, non-essential amino acids (M7145, manufactured by Sigma-Aldrich) and Penicillin/Streptomycin (hereinafter referred to as “PS”; manufactured by Gibco, Life Technologies Corporation Japan) were added.
Cells with 50 passages were detached with 0.25% trypsin/0.02% EDTA and seeded in a 24-well plate at a concentration of 2×10^5 cells/well. The cells were cultured in DMEM with 10% FBS (fetal bovine serum), 1% non-essential amino acids, and 1% PS for 14 days. The medium was changed every other day; and the cells were sufficiently differentiated to be used the experiment below.
The medium was removed 24 hours before stimulation with TNF-α; and the cells were washed with 1 ml of PBS per well twice. […]
The collected supernatant was subjected to ELISA (enzyme immunity measurement assay) to measure the amount of IL-8 in the supernatant. […] At the same time, the total amount of proteins in the supernatant was measured by using a bicinchoninic acid assay (Pierce BCA Protein Assay Kit, manufactured by Thermo Scientific). […]

Xbp1s = test: Example 5: ER stress marker gene expression in tissues (real time PCR), Xbp1s; assay type: in vivo, mice; details: Orz even at 320 μg/g of body weight/day, N=8
Method: as §5
(§9) The hypothalamus, the islets of Langerhans, the adipose tissue of the mesentery, the liver, the epididymal adipose tissue, and the subcutaneous adipose tissue were collected from the mice; and the expression level of ER stress marker genes (Chop, ERdj4, and Xbp1s), and inflammation marker genes (TNF-α and MCP-1) was quantified using a quantitative real time polymerase chain reaction. The islets of Langerhans was isolated from mice by digestion with collagenase (Liberase TL; manufactured by Roche Diagnostics K.K.) and purified using Histopaque (trademark) gradient (Histopaque 1077; manufactured by Sigma-Aldrich).
(§10) Using TRIzol (registered trademark) RNA Isolation Reagents (manufactured by Life Technologies Corporation), total RNA was extracted from each of the tissues; and cDNA was synthesized using iScript (trademark) cDNA Synthesis Kit (manufactured by Bio-Rad Laboratories, Inc.). Next, quantitative real time PCR was carried out using StepOnePlus (trademark) Real-Time PCR System, Fast TaqMan Universal Master Mix, and Fast SYBR Green Master Mix (manufactured by Applied Biosystems). The level of mRNA was normalized with that of 18S rRNA.
(§11) Data were expressed as mean±standard error (s.e.m). One-way analysis of variance, repeated measures analysis of variance, and multiple comparisons following repeated measures analysis of variance (Bonferroni/Dunn method) were employed as appropriate. For analysis of difference between two groups, Student's t-test was employed. […]

TNF-α = test: Example 5: inflammation marker gene expression in adipose tissues (real time PCR), TNF-α; assay type: in vivo, mice; details: Orz even at 320 μg/g of body weight/day, N=8
Method: as §5, §8, §6

Chop = test: Example 5: ER stress marker gene expression in tissues (real time PCR), Chop; assay type: in vivo, mice; details: for expression level of Chop: hypothalamus, Orz even at 320 μg/g of body weight/day
Method: as §5, §9, §10, §11

ob/ob mice [7] = test: Example 5: glucose tolerance test; assay type: in vivo; details: Orz even at 320 μg/g of body weight/day; n=14; FIG. 11C, 11D
Method: as §5, §7, §6

obese mice = details: oral γ-oryzanol 320 mg/kg; cited from earlier work
ob/ob mice [8] = test: Example 5: body weight of genetically obese mice over four weeks; assay type: in vivo; details: Orz everyday for four weeks, even at 320 μg/g of body weight/day; n=14; FIG. 9B
Method: as §4, §5
Data were expressed as mean±standard error (s.e.m). One-way analysis of variance, repeated measures analysis of variance, and multiple comparisons following repeated measures analysis of variance (Bonferroni/Dunn method) were employed as appropriate. For analysis of difference between two groups, Student's t-test was employed. Difference was considered to be significant with P<0.05.

ob/ob mice [9] = test: Example 2: blood glucose level of ob/ob mice; assay type: in vivo; details: γ-oryzanol alone, oral daily 5 and 320 μg/g of body weight/day; FIG. 2B
Method: as §1, §2, §3

γ-oryzanol
weight gain (ob/ob mice [1]): not observed | blood glucose level (ob/ob mice [2]): no significant change | concentration of plasma triglyceride (ob/ob mice [3]): not decreased | expression level of ERdj4 (ERdj4; islets of Langerhans, N=8, FIG. 14C): did not inhibit | expression level of ERdj4 (ERdj4; liver, printed in the sentence on Chop (FIG. 15C)): did not inhibit | expression level of MCP-1 (MCP-1; epididymal adipose tissue, FIG. 16B): did not inhibit | expression level of MCP-1 (MCP-1; subcutaneous fatty tissue, FIG. 16D): did not inhibit | blood glucose level in oral glucose tolerance test (ob/ob mice [4]): comparable | insulin tolerance (insulin tolerance test, blood glucose and AUC) (ob/ob mice [5]): no improvement | amount of IL-8 in the supernatant [6]: no significant difference | expression level of Xbp1s (Xbp1s; adipose tissue in the mesentery, FIG. 15B): did not inhibit | expression level of Xbp1s (Xbp1s; islets of Langerhans, FIG. 14D): did not inhibit | expression level of Xbp1s (Xbp1s; liver, FIG. 15D): did not inhibit | expression level of TNF-α (TNF-α; epididymal adipose tissue, FIG. 16A): did not inhibit | expression level of TNF-α (TNF-α; subcutaneous fatty tissue, FIG. 16C): did not inhibit | expression of Chop (Chop; adipose tissue in the mesentery, Orz 320 μg/g of body weight/day, N=8, FIG. 15A): significantly inhibited | expression level of Chop (Chop; N=8, FIG. 14A): did not inhibit | expression level of Chop (Chop; printed in the sentence on ERdj4 (FIG. 14B)): did not inhibit | glucose tolerance (glucose tolerance test, blood glucose and AUC) (ob/ob mice [7]): no improvement | blood glucose level (obese mice): decreased | insulin secretion (obese mice): promotion | lipid absorption from the small intestine (obese mice): inhibition | taste for high fat diets (obese mice): restriction | weight gain (ob/ob mice [8]): no significant suppression | blood glucose level (ob/ob mice [9]): not observed
